PubChem BioAssay (NCI)
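Five compound concentrations were applied to cells in 96-well plates for 48 hours; endpoints were derived by simple linear interpolation of the resulting dose-response curve. Definition used: TGI = concentration required for complete inhibition of growth.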 Where a SMILES comes first, the peptide text is derived from it. [ ]: non-standard residue; d: D form. Ac5c = NC1(C(=O)O)CCCC1

Key:
Experiment in all cases: NCI-60 cell line screen, 48 h
[1] = test system: DU-145 prostate
[2] = test system: NCI-H522 lung
[3] = test system: HT29 colon
[4] = test system: 786-0 renal
[5] = test system: SW-620 colon
[6] = test system: SN12C renal
[7] = test system: SK-OV-3 ovarian
[8] = test system: TK-10 renal
[9] = test system: SR leukemia
[10] = test system: HOP-92 NSCLC
[11] = test system: CAKI-1 renal
[12] = test system: UO-31 renal
[13] = test system: HOP-62 NSCLC
[14] = test system: CCRF-CEM leukemia
[15] = test system: MALME-3M melanoma
[16] = test system: EKVX NSCLC
[17] = test system: U251 CNS
[18] = test system: OVCAR-5 ovarian
[19] = test system: HS 578T breast
[20] = test system: HCT-116 colon
[21] = test system: HL-60(TB) leukemia
[22] = test system: COLO 205 colon
[23] = test system: MDA-N
[24] = test system: NCI/ADR-RES ovarian
[25] = test system: NCI-H226 lung
[26] = test system: SK-MEL-5 melanoma
[27] = test system: SF-539 CNS
[28] = test system: RPMI-8226 leukemia
[29] = test system: MCF7 breast
[30] = test system: PC-3 prostate
[31] = test system: MOLT-4 leukemia
[32] = test system: M14 melanoma
[33] = test system: K-562 leukemia
[34] = test system: SK-MEL-2 melanoma
[35] = test system: SF-295 CNS
[36] = test system: SF-268 CNS
[37] = test system: SNB-19 CNS
[38] = test system: OVCAR-3 ovarian
[39] = test system: LOX IMVI melanoma
[40] = test system: BT-549 breast
[41] = test system: SNB-75 CNS
[42] = test system: MDA-MB-435
[43] = test system: A549 NSCLC
[44] = test system: IGROV1 ovarian
[45] = test system: RXF 393 renal
[46] = test system: HCT-15 colon
[47] = test system: KM12 colon
[48] = test system: NCI-H23 lung
[49] = test system: MDA-MB-231 breast
[50] = test system: UACC-257 melanoma
[51] = test system: A498 renal
[52] = test system: OVCAR-8 ovarian
[53] = test system: SK-MEL-28 melanoma
[54] = test system: UACC-62 melanoma
[55] = test system: T-47D breast
[56] = test system: ACHN renal
[57] = test system: NCI-H460 lung
[58] = test system: OVCAR-4 ovarian
[59] = test system: HCC-2998 colon

Measured: TGI

CC(NC(=O)CNP(=O)(c1ccccc1)c1ccccc1)C(=O)NC(Cc1ccccc1)C(=O)OCc1ccccc1 (centres undefined)
51.3 µM: [7]
47.1 µM: [31]
> 10 µM: [14] | [22] | [33]
70.8 µM: [9]
87.8 µM: [39]
55 µM: [29]
42.5 µM: [35]
60.5 µM: [26]
49.3 µM: [53]
48.1 µM: [4]
62.3 µM: [17]
98.5 µM: [28]
96.6 µM: [49]
75.5 µM: [45]
48.5 µM: [41]
57.2 µM: [36]
> 100 µM: [1] | [3] | [5] | [6] | [8] | [10] | [11] | [12] | [13] | [15] | [16] | [18] | [19] | [20] | [21] | [23] | [24] | [25] | [27] | [30] | [32] | [34] | [37] | [38] | [40] | [42] | [43] | [44] | [46] | [47] | [48] | [50] | [51] | [52] | [54] | [55]
49.8 µM: [2]

O=C1Nc2ccccc2S/C1=C\c1ccc(C(F)(F)F)cc1
> 100 µM: [1] | [2] | [3] | [4] | [56] | [5] | [6] | [57] | [7] | [8] | [9] | [10] | [12] | [13] | [58] | [15] | [16] | [17] | [18] | [19] | [20] | [21] | [22] | [23] | [24] | [25] | [26] | [27] | [28] | [29] | [30] | [31] | [32] | [33] | [34] | [35] | [36] | [37] | [38] | [39] | [40] | [41] | [42] | [43] | [44] | [45] | [46] | [47] | [49] | [50] | [51] | [52] | [53] | [54] | [55]
93.3 µM: [11]

Clc1cccc(Cl)c1C(Nc1nncs1)Nc1nncs1
99.7 µM: [25]
71.1 µM: [50]
68.5 µM: [57]
25.5 µM: [23]
60.6 µM: [42]
43.9 µM: [21]
54.5 µM: [53]
70.9 µM: [2]
84.1 µM: [8]
> 100 µM: [1] | [3] | [4] | [56] | [5] | [6] | [7] | [9] | [10] | [11] | [12] | [13] | [58] | [15] | [16] | [17] | [18] | [19] | [20] | [22] | [24] | [26] | [27] | [28] | [29] | [30] | [31] | [32] | [33] | [34] | [35] | [36] | [37] | [38] | [39] | [40] | [41] | [43] | [44] | [45] | [46] | [47] | [48] | [49] | [51] | [52] | [54] | [55]

CCCCC/C=C1\CC(CO)(COC(=O)CC(C(C)C)C(C)C)OC1=O (centres undefined)
33.9 µM: [45]
22 µM: [42]
44.9 µM: [1]
40.2 µM: [49]
22.9 µM: [26]
32.4 µM: [32]
27.7 µM: [18]
47 µM: [24]
49 µM: [34]
36.8 µM: [8]
27.2 µM: [25]
27.5 µM: [30]
15.3 µM: [22]
30.3 µM: [4] | [16] | [37]
46.5 µM: [58]
31.8 µM: [6] | [44]
36.2 µM: [53]
> 100 µM: [5] | [57] | [9] | [14]
44.2 µM: [33]
32.3 µM: [38]
54.1 µM: [31]
39 µM: [54]
18.3 µM: [19]
32.1 µM: [52]
40.1 µM: [3]
36.4 µM: [48]
39.3 µM: [29]
21.1 µM: [13]
28.7 µM: [56]
32.6 µM: [59]
45.6 µM: [50]
26.8 µM: [41]
20 µM: [35]
38.9 µM: [46]
28.3 µM: [47]
38.7 µM: [7]
24.3 µM: [11]
31 µM: [40]
31.6 µM: [17]
31.9 µM: [15]
20.9 µM: [10]
35.5 µM: [36]
33.6 µM: [2]
44.4 µM: [20]
28.8 µM: [43]
33.7 µM: [51]
28.6 µM: [12]
26.4 µM: [23]
55.1 µM: [55]

NCC(=O)NC1(C(=O)O)CCCC1 (H-Gly-[Ac5c]-OH)
> 100 µM: [1] | [2] | [3] | [4] | [56] | [5] | [6] | [57] | [7] | [8] | [9] | [10] | [11] | [12] | [13] | [58] | [15] | [59] | [16] | [17] | [18] | [19] | [20] | [22] | [23] | [24] | [26] | [27] | [28] | [29] | [30] | [31] | [32] | [33] | [34] | [35] | [36] | [37] | [38] | [39] | [40] | [41] | [42] | [43] | [44] | [45] | [46] | [47] | [48] | [49] | [50] | [51] | [52] | [53] | [54] | [55]
